According to patent US20170071967A1, “IMMUNOGENIC LIPOSOMAL FORMULATION” (GlaxoSmithKline Biologicals, SA, priority 2014, published 2017):

Test system: rabbits
Assay: Rabbit pyrogenicity test (surrogate measure of incorporation into liposomes)
Assay type: in vivo
Details: free (non-liposomal) CRX-601
Method: The tests were performed at Pacific Biolabs (Hercules, Calif.) as per their SOP 16E-02.

CCCCCCCCCCC[C@H](CC(=O)N[C@H]1[C@H](OC[C@H](NC(=O)C[C@@H](CCCCCCCCCCC)OCCCCCCCCCC)C(=O)O)O[C@H](CO)[C@@H](OP(=O)(O)O)[C@@H]1OC(=O)C[C@@H](CCCCCCCCCCC)OCCCCCCCCCC)OCCCCCCCCCC [CRX-601] gave a max non-pyrogenic dose of 0.0025 µg/kg.
